# Laboratory results as given in patent US7288573B2, “Method of repelling insects” (priority 2001, dated 2007).
# “And” between values parts separate entries of the source, which are not always exact repeats. Identical values can stand only once. “Also recorded” adds a separate entry of the source.
# Key:
# [1] = test system: Aedes albopictus; assay: One-minute biting counts on treated forearm (Example 7); type: in vivo; details: 20% formulations; post-treatment time intervals
# Experimental: This experiment was performed to evaluate the comparative repellency of 5% and 20% 2-undecanone in ethanol, 20% 2-tridecanone in isopropanol and Off!™ 14.25% DEET Insect Repellent aerosol against Aedes albopictus (Asian tiger mosquitoes) and Culex quinquefasciatus (southern house mosquitoes).
# Three to four-day-old laboratory-reared female Ae. albopictus and Cx. quinquefasciatus were transferred by aspiration into eight cages measuring 10 inches high×10 inches wide×13 inches deep at a targeted stocking rate of 100 and 200, respectively. Four cages contained Ae. albopictus and four contained Cx. quinquefasciatus. A greater number of Cx. quinquefasciatus was used to compensate for lower biting activity anticipated for this species. The actual number of females per cage was lower than the target-stocking rate because of the high number of males that were inadvertently introduced into the cages. Each cage contained a screened back wall, clear Plexiglas top, stockinette entry sleeve and solid aluminum floor and sidewalls. The mosquitoes were fed water and sugar water prior to and between tests. The tests were conducted over four days, Aug. 7-10, 2001, with four men participating as testers. All testers washed both arms with a non-fragrance soap, rinsed and swabbed with 25% ethanol prior to applying treatments. Treatments were applied to the forearm in a region extending from the wrist to a point measured at 12″ back from the tip of the index finger on both arms. The 20% 2-tridecanone was not applied as uniformly as the other repellents because an insufficient quantity was available. Latex gloves were worn over the hands and replaced before each biting count. The control consisted of a soap wash, rinse and 25% ethanol swab and was conducted by the same person throughout the study. One-minute biting counts were recorded at 0, 1, 2, 4 & 6 hours post-treatment time intervals. All treatments were randomly assigned to each tester, two treatments per tester. Cage placement was also randomized at the beginning of each day of testing. Testers were rotated each day so that by the end of the study they had occupied each cage location. Each repellent was tested two times by three testers so that mean biting counts were based on six observations. A Hobo datalogger was used to monitor temperature and humidity throughout the study.
# A balanced incomplete block design following American Society for Testing and Materials standards E 939-94 was employed. Data were normalized by square root transformation and submitted to analysis of variance and mean separation procedures via SS PC. Microsoft Excel 2000 pivot tables and charting functions were used to plot mean biting counts and standard errors by species and time interval for each treatment and control. Mean biting counts were transformed to percent protection or repellency by the following formula: Control−Treatment/Control×100.
# [2] = test system: Culex spp.; assay: Mosquito repellency of 2-undecanone and 2-tridecanone, treated arm in cage (Example 6); type: in vivo; details: for No. landings: single replicates; for observed repellent / residual activity (words): observed up to 24 hours post-treatment
# Source text: Cages. The same two mosquitoes cages described in Example 5 were used for this example. The cages were constructed using wood framing and fine mesh wire screen. The dimensions of each cage were 59 cm high×55 cm wide by 59 cm deep. A hinged access door was installed at the front of each chamber for insertion of the water-filled containers filled with mosquito pupae. Also present at the front of each chamber was a 9 cm diameter plastic tube (i.d.) for insertion of the arm of the investigator. The arm insertion tube was sealed with a rubber stopper when not in use.
# Mosquitoes and Mosquito Rearing. Mosquitoes (Culex spp.) were obtained (as pupae and larvae) from Carolina Biological Supply Co., Burlington, N.C., USA in two successive shipments, so as to provide a continuing long term supply of fresh insects. Following their arrival, the mosquitoes were divided into approximately equal numbers in multiple water-filled containers and placed in the two cages described above. The larval and pupal cultures were fed with insect rearing compound. In addition, the water was changed regularly by filtration to minimize contamination and prevent overcrowding. Continuous culturing made it possible to increase the mosquito numbers to more than 100 insects per cage.
# Test Compounds and Testing Schedule. Testing was done with two compounds, 2-undecanone, and 2-tridecanone, for repellent activity by treating one arm of the investigator with approximately 1 ml of the test solution. Following several minutes for solvent evaporation, the treated arm was inserted through the insertion tube for 5 minutes. The other arm was treated with isoprbpanol (control) or a different concentration of the compound, and inserted into the insertion tube of the adjacent chamber. Next, the behavior of the mosquitoes in response to the presence of the investigator's arms was noted. Mosquito behavior was recorded as 1) landing or attempting to land on the investigator's arm, or coming to rest on the wire screen immediately adjacent to the investigator's arm or hand, versus 2) dispersal away from the treated arm towards the opposite ends of the cage. The approximate number of mosquitoes present at the beginning of the observations was noted. For treatments with 2-undecanone, observations were made initially to confirm 100% repellent activity of the compound immediately after treatment but observations were not recorded. Recording of efficacy was delayed until 6 hours after treatment, and then repeated at 12 and 24 hours post-treatment. For treatment with 2-tridecanone, the observations commenced immediately after solvent drying; then, the observations were repeated (without re-treatment of the investigator's hand and arm) after 6 hours, 12 hours and 24 hours. Treatments were alternated between the different cages. […]
# 2-tridecanone was obtained as a solid. To prepare this compound for testing, it was subjected to gentle heating in a 37° C. water bath to liquefy it, and aliquots of the stock were diluted volume: volume with isopropanol to 50% concentration and 20% concentration. Sufficient pure compound was retained for direct application (undiluted).
# Tests were done at concentrations of 100%, 50%, and 20% for each of the two compounds, as well as 20% DEET, and the isopropanol control.
# Table 3 presents the efficacy found at the different time intervals for each of the compounds at the three different concentrations and for DEET. Efficacy was calculated according to the formula: [(no. landings/no. present in control)−(no. landings/no. present in experinental) divided by (no. landings/no. present in control)]×100.
# [3] = 20% concentration, 0 hours after treatment
# [4] = 20% concentration, 6 hours after treatment
# [5] = 20% concentration, 12 hours after treatment
# [6] = 20% concentration, 24 hours after treatment
# [7] = 50% concentration, 0 hours after treatment
# [8] = 50% concentration, 6 hours after treatment
# [9] = 50% concentration, 12 hours after treatment
# [10] = 50% concentration, 24 hours after treatment
# [11] = 100% concentration, 0 hours after treatment
# [12] = 100% concentration, 6 hours after treatment
# [13] = 100% concentration, 12 hours after treatment
# [14] = 100% concentration, 24 hours after treatment
structure (smiles),measurement,setting,value
CCCCCCCCCCCC(C)=O [2-tridecanone],repellency,[1],low repellency
same,Percent Efficacy Post-Treatment,"[2]; 20% concentration, 0 hours",1.5%^
same,"No. landings, Mean",[2]; [3],4.0
same,Percent = [(No. landings/No. present)] × 100,[2]; [3],14.4%
same,No. landings,[2]; [3],4 and 3 and 5
same,Percent Efficacy Post-Treatment,"[2]; 20% concentration, 6 hours",0%
same,"No. landings, Mean",[2]; [4],4.7
same,Percent = [(No. landings/No. present)] × 100,[2]; [4],14.0%
same,No. landings,[2]; [4],3 and 4 and 7
same,Percent Efficacy Post-Treatment,"[2]; 20% concentration, 12 hours",22.2%
same,"No. landings, Mean",[2]; [5],4.7
same,Percent = [(No. landings/No. present)] × 100,[2]; [5],13.0%
same,No. landings,[2]; [5],3 and 5 and 6
same,Percent Efficacy Post-Treatment,"[2]; 20% concentration, 24 hours",0%
same,"No. landings, Mean",[2]; [6],5.7
same,Percent = [(No. landings/No. present)] × 100,[2]; [6],14.9%
same,No. landings,[2]; [6],5 and 6 (2×)
same,observed repellent / residual activity (words),[2]; 20% concentration,repellant activity was not observed
same,observed repellent / residual activity (words),"[2]; 20% concentration, listed as 2-Tridecanone",Comments: No residual repellent activity was observed.
same,Percent Efficacy Post-Treatment,"[2]; 50% concentration, 0 hours",95.2%
same,"No. landings, Mean",[2]; [7],0.7
same,Percent = [(No. landings/No. present)] × 100,[2]; [7],0.7%
same,Percent = [(No. landings/No. present)] × 100,"[2]; 50% concentration, 0 hours after treatment, listed as 2-Tridecanone",2.4%
same,No. landings,[2]; [7],0 and 1 (2×)
same,Percent Efficacy Post-Treatment,"[2]; 50% concentration, 6 hours",67.7%
same,"No. landings, Mean",[2]; [8],1.3
same,Percent = [(No. landings/No. present)] × 100,[2]; [8],4.3%
same,Percent = [(No. landings/No. present)] × 100,"[2]; 50% concentration, 6 hours after treatment, listed as 2-Tridecanone",4.3%
same,No. landings,[2]; [8],3 and 0 and 1
same,Percent Efficacy Post-Treatment,"[2]; 50% concentration, 12 hours",0%
same,"No. landings, Mean",[2]; [9],5.7
same,Percent = [(No. landings/No. present)] × 100,[2]; [9],19.7%
same,No. landings,[2]; [9],7 and 4 and 6
same,Percent Efficacy Post-Treatment,"[2]; 50% concentration, 24 hours",0%
same,"No. landings, Mean",[2]; [10],5.0
same,Percent = [(No. landings/No. present)] × 100,[2]; [10],18.7%
same,No. landings,[2]; [10],7 and 4 (2×)
same,observed repellent / residual activity (words),[2]; 50% concentration,activity greatly diminished or was absent after 12 and 24 hours.
same,Percent Efficacy Post-Treatment,"[2]; 100% concentration, 0 hours",87.7%
same,"No. landings, Mean",[2]; [11],1.3
same,Percent = [(No. landings/No. present)] × 100,[2]; [11],1.8%
same,Percent = [(No. landings/No. present)] × 100,"[2]; 100% concentration, 0 hours after treatment, listed as 2-Tridecanone",1.8%
same,No. landings,[2]; [11],0 and 1 and 3
same,Percent Efficacy Post-Treatment,"[2]; 100% concentration, 6 hours",18.1%
same,"No. landings, Mean",[2]; [12],9.7
same,Percent = [(No. landings/No. present)] × 100,[2]; [12],10.9%
same,No. landings,[2]; [12],9 and 10 (2×)
same,Percent Efficacy Post-Treatment,"[2]; 100% concentration, 12 hours",41.9%
same,"No. landings, Mean",[2]; [13],10.3
same,Percent = [(No. landings/No. present)] × 100,[2]; [13],9.7%
same,No. landings,[2]; [13],16 and 7 and 8
same,Percent Efficacy Post-Treatment,"[2]; 100% concentration, 24 hours",0%
same,"No. landings, Mean",[2]; [14],15.0
same,Percent = [(No. landings/No. present)] × 100,[2]; [14],13.3%
same,No. landings,[2]; [14],17 and 15 and 13
same,observed repellent / residual activity (words),[2]; 100% concentration,Comments: The compound was highly repellent. A huge cloud of mosquitoes retreated
same,"overall repellent activity, comparison of the two compounds","[2]; 100%, 50% and 20% concentrations, 0 to 24 hours",less effective as a repellent against mosquitoes than 2-undecanone
"CCN(CC)C(=O)c1cccc(C)c1 [DEET, N,N-diethyl-meta-toluamide, reference compound]",Percent Efficacy Post-Treatment,"[2]; 20% concentration, 0 hours",91.1%
same,"No. landings, Mean",[2]; [3],1.3
same,Percent = [(No. landings/No. present)] × 100,[2]; [3],1.3%
same,No. landings,[2]; [3],2 (2×) and 0
same,Percent Efficacy Post-Treatment,"[2]; 20% concentration, 6 hours",63.9%
same,"No. landings, Mean",[2]; [4],5.7
same,Percent = [(No. landings/No. present)] × 100,[2]; [4],4.8%
same,No. landings,[2]; [4],10 and 4 and 3
same,Percent Efficacy Post-Treatment,"[2]; 20% concentration, 12 hours",31.7%
same,"No. landings, Mean",[2]; [5],15.0
same,Percent = [(No. landings/No. present)] × 100,[2]; [5],11.4%
same,No. landings,[2]; [5],12 and 15 and 18
same,Percent Efficacy Post-Treatment,"[2]; 20% concentration, 24 hours",16.8%
same,"No. landings, Mean",[2]; [6],13.0
same,Percent = [(No. landings/No. present)] × 100,[2]; [6],10.9%
same,No. landings,[2]; [6],14 (2×) and 11
same,observed repellent / residual activity (words),[2]; 20% concentration,"strong immediate and residual activity for up to 6 hours, weak activity at 12 hours and none thereafter; also recorded: treatment, but no residual activity was observed at 12 or 24 hours post-treatment"
